Results on four compounds are retold here after patent US9051349B2, “Larazotide acetate compositions” (Alba Therapeutics Corp., priority 2007, dated 2015).

A short description of data set [1]: physchem. Particulars: water. Here is the method:
Solubilities of Larazotide acetate and the corresponding chloride salt in water were tested at 20° C. after 14 hours of vigorous stirring in the presence of residual solid. Concentrations of peptide are measured by standardized HPLC.

The procedure of data set [2]:
The stability of the chloride salt was tested at 25° C. without humidity control (in closed bottles). The stability of the acetate salt was determined at 25° C./60% RH.

For data set [3] the following is noted: 5% to 95% RH sorption/desorption. An excerpt: Moisture sorption/desorption data were collected on a VTI SGA-100 Vapor Sorption Analyzer. Sorption and desorption data were collected over a range of 5% to 95% relative humidity (RH) at 10% RH intervals under a nitrogen purge. Samples were not dried prior to analysis. Equilibrium criteria used for analysis were less than 0.0100% weight change in five minutes, with a maximum equilibration time of three hours if the weight criterion was not met. Data were not corrected for the initial moisture content of the samples. NaCl and PVP were used as calibration standards.

Data set [4] is described as follows: physchem. As to the method: Approximate solubilities of Larazotide acetate Form A in different solvents were determined. Aliquots of the test solvent were added to weighed samples of Larazotide. The samples were sonicated to aid in dissolution. Visual inspection was used to determine if a sample had dissolved. The approximate solubility was calculated from the total amount of solvent added.

The conditions of data set [5]: 40 C/75% RH, 1 and 2 months.
Experimental: An appropriate amount of amorphous larazotide acetate and crystalline larazotide acetate was used for a stability study to evaluate quality parameters (purity, impurities, assay and ID) for these materials under various storage conditions. Data was collected at two time points, namely at 1 month and at 2 months of storage under the conditions tested.
Data was generated for storage of the three larazotide acetate samples stored at 40 C/75% RH. All three samples were analyzed at 1 and 2 months.
Where [6] appears, read: 25° C. without humidity control (closed bottles), timepoint 0.
The mark [7] stands for this setting: 25° C. without humidity control (closed bottles), timepoint 1.
[8] abbreviates: 25° C. without humidity control (closed bottles), timepoint 2.

The structures appear in SMILES notation. In brackets after ≈: the same amount, converted by molar mass. Read-outs that look alike come from different tables or passages of the source. Residues, ends and D or L forms follow the SMILES beside them.

`CC(C)C[C@H](NC(=O)[C@@H](NC(=O)CNC(=O)CN)C(C)C)C(=O)N[C@H](C(=O)N[C@@H](CCC(N)=O)C(=O)N1CCC[C@H]1C(=O)NCC(=O)O)C(C)C` [Larazotide Chloride] (H-GGVLVQPG-OH) came in with a solubility at 14 h in data set [1] not below 300000 µg/mL. The rate of deamidation result in data set [2] (25° C. without humidity control (closed bottles)) is reported as “about 1 %/month”. The “% HPLC Area (purity)” value in data set [2] (setting [6]) came to 98.4%; in data set [2] (setting [7]), 97.8%; in data set [2] (setting [8]), 96.1%. The “Deamidated “Glu” % HPLC area” value in data set [2] (setting [6]) was determined as 1.06%; in data set [2] (setting [7]), 1.85%; in data set [2] (setting [8]) it was 3.02%.
As to `CC(C)C[C@H](NC(=O)[C@@H](NC(=O)CNC(=O)CN)C(C)C)C(=O)N[C@H](C(=O)N[C@@H](CCC(N)=O)C(=O)N1CCC[C@H]1C(=O)NCC(=O)O)C(C)C` [Larazotide Acetate] (H-GGVLVQPG-OH), in data set [2] (25° C./60% RH), the rate of deamidation entry was “about 0.05 %/month”. Moreover, the “% HPLC Area (purity)” value in data set [2] (25° C./60% RH, timepoint 0) is on record as 98.7%; in data set [2] (25° C./60% RH, timepoint 1) it was 98.4%; in data set [2] (25° C./60% RH, timepoint 2) it was 98.2%; in data set [2] (25° C./60% RH, timepoint 3), 97.7%; in data set [2] (25° C./60% RH, timepoint 6) it was 96.1%. In addition, the “Deamidated “Glu” % HPLC area” value in data set [2] (25° C./60% RH, timepoint 0) was 0.19%; in data set [2] (25° C./60% RH, timepoint 1) it was 0.22%; in data set [2] (25° C./60% RH, timepoint 2), 0.26%; in data set [2] (25° C./60% RH, timepoint 3), 0.40%; in data set [2] (25° C./60% RH, timepoint 6) it was 0.60%.
Regarding `CC(C)C[C@H](NC(=O)[C@@H](NC(=O)CNC(=O)CN)C(C)C)C(=O)N[C@H](C(=O)N[C@@H](CCC(N)=O)C(=O)N1CCC[C@H]1C(=O)NCC(=O)O)C(C)C` [Form A] (H-GGVLVQPG-OH), the “solid form by XRPD following the moisture sorption experiment” value in data set [3] was “still Form A”. The solubility in data set [4] ((1:1) DCM/MeOH) is less than 3000 µg/mL; in data set [4] ((1:1) Water/ACN), less than 3000 µg/mL; in data set [4] ((1:1) Water/Dioxane), less than 3000 µg/mL; in data set [4] ((1:1) Water/MeOH), less than 3000 µg/mL; in data set [4] (Acetone), less than 4000 µg/mL; in data set [4] (Acetonitrile (ACN)), less than 4000 µg/mL. Also, the solubility in data set [4] (Dichloromethane (DCM)), in data set [4] (Dimethyl sulfoxide (DMSO)), in data set [4] (Dioxane), in data set [4] (Ethanol (EtOH)), in data set [4] (Ethyl acetate (EtOAc)) and in data set [4] (Methanol (MeOH)) was less than 4000 µg/mL throughout. Besides, the solubility in data set [4] (Tetrahydrofuran (THF)) was less than 4000 µg/mL; in data set [4] (Trifluoroethanol (TFE)), 4000 µg/mL (≈ 5.51 mM); in data set [4] (water), 8000 µg/mL (≈ 11 mM).
As to `CC(C)C[C@H](NC(=O)[C@@H](NC(=O)CNC(=O)CN)C(C)C)C(=O)N[C@H](C(=O)N[C@@H](CCC(N)=O)C(=O)N1CCC[C@H]1C(=O)NCC(=O)O)C(C)C` [amorphous larazotide acetate] (H-GGVLVQPG-OH), the “overall rate of degradation” value in data set [5] was approximately 10 % per month.
